Results published in patent publication US10618900B2, “5-aromatic alkynyl substituted benzamide compound and preparation method, pharmaceutical composition, and use thereof” (SHANGHAI INSTITUTE OF MATERIA MEDICA, CHINESE ACADEMY OF …, priority 2015, dated 2020).
Read-outs that look alike come from different tables or passages of the source.

Experiments:
[1] = system: mice; assay: Head twitches test (5-HTP induced); type: in vivo; conditions: 20 mg/kg, intraperitoneal, in 6 min, FIG. 2
Text: Experimental principle: Model Head Thrust Test (HTT) is first raised by Corne et al. in 1963, head twitches syndrome caused by 5-HT receptor excitement may be mediated through the 5-HT2 receptor. The head twitches behavior induced by 5-HTP in mice is more sensitive to antidepressants with different action mechanisms, such as citalopram, fluvoxamine and other 5-HT retake inhibitors, desipramine, maprotiline, nomifensine and other NA retake inhibitors and imipramine acting on both 5-HT and NA system.
Experimental method: 20-24 g male mice were selected. 3 h before the test, 100 mg/kg pargyline was intraperitoneal injected and then intraperitoneal injected with test drugs or saline. 5-HTP (5 mg/kg, ip) was injected 30 min later. After 10 min, the observation was started and the number of mice head twitches in 6 min was recorded. The numbers of the head twitches of experimental group and the saline control group were compared.

[2] = target: mGluR1 (Homo sapiens (Human), UniProt Q13255); assay: mGluR5/1 selectivity test, HEK293/mGluR1 cell line, Fluo-8 calcium; type: cell-based
Text: Experimental material: HEK293/mGluR5 cell line, HEK293/mGluR1 cell line, Fluo-8 calcium ion fluorescent dye, positive control JNJ16259685

[3] = system: ICR mice; assay: Mouse forced swimming experiment; type: in vivo; conditions: later 4 min of 6 min
Procedure: Experimental principle: The principle of Mouse Forced Swimming Test (FST) is to allow the mouse to swim in a limited space from which it can not escape, thus inducing animal to non-movement state which reflects the animal's desperate behavior.
Experimental animals: ICR mice, 20-28 g, both male and female
Sample treatment: The test compounds were ground with 1% CMC (sodium carboxymethyl cellulose) aqueous solution to prepare a homogeneous solution. In vivo dose was 5 mg/kg, 10 mg/kg and 20 mg/kg, the compound was oral administered at 0.1 ml/10 g volume/body weight. Positive control drugs (amitriptyline and fluoxetine) were dissolved with 0.9% saline, in vivo dose was 10 mg/kg, administered by intraperitoneal injection at 0.1 ml/10 g volume/body weight. (Note: the mice were fasted for 8 h and drinked water ad libitum before the compound was given.)
Experimental Methods: mice were grouped randomly. […] On the second day of the test, the mice were orally administered the compound. After 1 hour (0.5 hours after intraperitoneal injection), the mice were then put in water to record the immobility time in the later 4 min of 6 min.

[4] = Determination of brain tissue content in rats; type: in vivo; conditions: rat
Procedure: Six healthy rats weighing 150-200 g were randomly divided into […] (n=3). The rats were given 10 mL/kg by gavage and intravenous injection, and the dose of gavage was 20 mg/kg, and the dose of intravenous administration was 10 mg/kg. The drug was formulated in DMSO/Tween 80/saline (5:5:90, v/v/v). The rats were fasted for 12 h before testing, and drinked water ad libitum. 2 h after administration, all rats ate together. […]
A physiological saline solution was added (1:10, weight:volume) and the mixture was sufficiently homogenized to form a homogenate. 100 uL homogenate was taken, and 300 uL dichloromethane:methanol (3:2) solution was added, mixed uniformly through vortex oscillation and centrifugated at 14000 rpm for 10 min. The clear liquor was taken. The sample was dried with nitrogen and stored in the 4° C. refrigerator.

[5] = system: Fmr1 knockout mice; assay: Audiogenic epilepsy induced animal model of Fmr1 knockout mice; type: in vivo; conditions: for Seizure level: level 0-4
Procedure: In this study, we used audiogenic epilepsy induced animal model of Fmr1 knockout mice, and evaluated the efficacy of compound ZD043 with epilepsy seizure latency, seizure level and epileptic mortality as evaluation indexes.
Species, strain: Fmr1 knockout mice, FVB.129P2-Pde6b^+ Tyr^c-ch Fmr1^tm1Cgr/J (strain number 004624)
Test reagent and preparation method: before the experiment, 2.0 mg ZD043 was weighed in 2 mL centrifuge tube, 10 uL DMSO was taken with a precise pipette to dissolve ZD043 powder, then 10 uL Tween80 was added, mixed and 980 uL of saline was added, well mixed to form a suspension liquid.
Methods: The mice were weighed on the day of the experiment. The mice were injected intraperitoneally into 19 to 22 days Fmr1 knockout mice respectively according to the experimental design group 30 minutes before the convulsive test. The mice to be tested were transferred to a sonic seizure test laboratory, placed in a transparent organic glass bucket, and a high-decibel siren loudspeaker was fixed on the top of organic glass bucket. Before delivering the stimulate sound, the mouse was allowed to explore freely for 1 minute, then turn on the loudspeaker, video recorded for the whole process by surveillance system, sound stimulated (≥120 dB) for 3 minutes, or stop after the animal was died, and the experiment was ended.
Test method: After the end of the experiment, the epilepsy seizure latency (2 grade appearance was regarded as seizures, and the longest latency period was recorded as 300 seconds if no epilepsy was observed) and seizure level (Level 0: no epileptic response; Level 1: rapid running and continuous jump; Level 2: paroxysmal epilepsy; Level 3: tonic epilepsy; Level 4: death) were analyzed according to video record.
Data processing: calculate the mean and standard error of the epilepsy seizure latency and seizure level as well as the percentage of epilepsy death of each group.

mGluR1, sequence (Q13255 19-1194): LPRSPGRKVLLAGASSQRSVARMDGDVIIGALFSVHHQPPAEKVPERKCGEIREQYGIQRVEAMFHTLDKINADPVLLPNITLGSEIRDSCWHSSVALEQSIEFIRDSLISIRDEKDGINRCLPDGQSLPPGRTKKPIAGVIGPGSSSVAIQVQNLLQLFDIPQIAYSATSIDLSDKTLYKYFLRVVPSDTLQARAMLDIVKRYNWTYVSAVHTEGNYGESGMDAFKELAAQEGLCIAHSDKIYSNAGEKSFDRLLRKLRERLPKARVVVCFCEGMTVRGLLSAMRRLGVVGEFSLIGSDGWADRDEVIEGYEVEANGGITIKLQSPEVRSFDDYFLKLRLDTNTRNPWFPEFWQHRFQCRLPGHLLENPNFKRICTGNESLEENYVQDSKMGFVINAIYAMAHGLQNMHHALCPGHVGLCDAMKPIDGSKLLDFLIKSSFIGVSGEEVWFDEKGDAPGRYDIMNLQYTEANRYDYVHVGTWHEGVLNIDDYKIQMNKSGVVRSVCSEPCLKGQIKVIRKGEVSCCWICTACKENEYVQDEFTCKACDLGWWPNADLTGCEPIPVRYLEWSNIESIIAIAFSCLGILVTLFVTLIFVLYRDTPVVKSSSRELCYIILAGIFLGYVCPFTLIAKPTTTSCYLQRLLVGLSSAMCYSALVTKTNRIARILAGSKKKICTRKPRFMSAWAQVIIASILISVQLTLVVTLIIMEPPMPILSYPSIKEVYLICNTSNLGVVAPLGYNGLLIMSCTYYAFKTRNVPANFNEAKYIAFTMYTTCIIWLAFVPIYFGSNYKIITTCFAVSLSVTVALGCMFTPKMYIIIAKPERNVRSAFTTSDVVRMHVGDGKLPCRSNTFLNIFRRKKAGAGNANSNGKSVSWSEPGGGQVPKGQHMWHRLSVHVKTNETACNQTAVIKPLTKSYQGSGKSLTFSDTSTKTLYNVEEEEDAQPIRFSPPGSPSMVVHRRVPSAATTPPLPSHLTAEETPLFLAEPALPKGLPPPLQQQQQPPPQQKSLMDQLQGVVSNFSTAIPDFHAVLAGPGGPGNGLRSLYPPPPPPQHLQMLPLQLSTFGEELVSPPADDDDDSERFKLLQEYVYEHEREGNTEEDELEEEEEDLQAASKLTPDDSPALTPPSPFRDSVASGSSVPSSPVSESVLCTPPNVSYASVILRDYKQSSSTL

With Cc1nc(C#Cc2ccc(F)c(C(=O)Nc3cccnc3)c2)cs1 [ZD043] the “number of head twitches” value [1] was “increase”, the IC50 ([2]; HEK293/mGluR1 cell line) was over 100 µM and the mGluR5/mGluR1 ([2]; selectivity ratio of IC50 values) was over 17854. The “immobility time (%) Mean ± SEM” value ([3]; 5 mg/kg oral) was “reduced”, the “immobility time (%) Mean ± SEM” value ([3]; 5 mg/kg oral, listed as D043) was 74.97 ± 18.79% and the “immobility time (%) Mean ± SEM” value ([3]; 10 mg/kg oral) was “reduced”. The “immobility time (%) Mean ± SEM” value ([3]; 10 mg/kg oral, listed as D043) was 66.01 ± 21.08%, the “immobility time (%) Mean ± SEM” value ([3]; 20 mg/kg oral) was “reduced” and the “immobility time (%) Mean ± SEM” value ([3]; 20 mg/kg oral, listed as D043) was 46.50 ± 13.03%. The concentration at 0.25 h ([4]; cerebrospinal fluid, sampling time 0.25 h, read-out: Cerebrospinal fluid) was 25.5 ng/mL, the concentration at 1 h ([4]; cerebrospinal fluid, sampling time 1 h, read-out: Cerebrospinal fluid) was 21.3 ng/mL and the concentration at 3 h ([4]; cerebrospinal fluid, sampling time 3 h, read-out: Cerebrospinal fluid) was 7.99 ng/mL. It also gave a concentration at 0.25 h ([4]; plasma, sampling time 0.25 h, read-out: Plasma) of 1240 ng/mL, a concentration at 1 h ([4]; plasma, sampling time 1 h, read-out: Plasma) of 1130 ng/mL and a concentration at 3 h ([4]; plasma, sampling time 3 h, read-out: Plasma) of 358 ng/mL. The “drug concentration ratio in the brain and plasma” value ([4]; after administration) was 1/2, the B/P ([4]; sampling time 0.25 h) was 1/2 and the concentration at 0.25 h ([4]; sampling time 0.25 h, read-out: brain) was 589 ng/g. For the same molecule, the B/P ([4]; sampling time 1 h) was 1/2, the Csf/P ([4]; sampling time 1 h) was 1/53 and the concentration at 1 h ([4]; sampling time 1 h, read-out: brain) was 559 ng/g. The Csf/P ([4]; sampling time 3 h) was 1/45, the concentration at 3 h ([4]; sampling time 3 h, read-out: brain) was 164 ng/g and the “Mortality (%)” value ([5]; 10 mg/kg intraperitoneal) was 25%. The “Latency” value ([5]; 10 mg/kg intraperitoneal, single injection, 30 min before test) was 133.9 s, the Seizure level ([5]; 10 mg/kg intraperitoneal) was 1.4 and the “Latency” value ([5]; 20 mg/kg intraperitoneal) was 123.1 s. For the same molecule, the “Mortality (%)” value ([5]; 20 mg/kg intraperitoneal) was 12.5%, the Seizure level ([5]; 20 mg/kg intraperitoneal) was 1.5 and the “Latency” value ([5]; 30 mg/kg intraperitoneal) was 180 s. For the same molecule, the “Mortality (%)” value ([5]; 30 mg/kg intraperitoneal) was 0% and the Seizure level ([5]; 30 mg/kg intraperitoneal) was 0.
